Among the data in patent publication US11820766B2, “Monoacylglycerol lipase modulators” (Janssen Pharmaceutica NV, priority 2018, dated 2023) are IC50 values, retold here.

pIC50: −log10 of the molar value.

By pIC50 is commonly meant the negative decadic logarithm of the IC50, by convention in mol/L. Lower therefore signals a high IC50.

In the first experiment the target is T1, human MGL from HeLa cells (Homo sapiens, UniProt Q99685).
T1 construct: combining endogenously expressed MGL from HeLa cells with test compounds; endogenous in cells; host or cells: HeLa cells / cell homogenates
T1 sequence (Q99685 1-303): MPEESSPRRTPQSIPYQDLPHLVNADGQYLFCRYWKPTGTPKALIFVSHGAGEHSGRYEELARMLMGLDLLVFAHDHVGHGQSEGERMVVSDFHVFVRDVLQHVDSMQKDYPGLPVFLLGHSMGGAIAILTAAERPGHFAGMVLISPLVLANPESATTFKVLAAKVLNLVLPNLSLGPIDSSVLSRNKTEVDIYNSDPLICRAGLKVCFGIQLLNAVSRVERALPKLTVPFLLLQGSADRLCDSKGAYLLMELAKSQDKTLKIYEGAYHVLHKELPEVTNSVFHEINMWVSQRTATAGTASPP
Nature of the experiment: In vitro MGL activity assay: [glycerol-1,3-3H]-oleyl glycerol cleavage by MGL from HeLa cells. The class given is biochemical. Conditions: 300 nM [Glycerol-1,3-3H]-oleyl glycerol, one hour. From the text:
MGL is the predominant hydrolase in HeLa cells/cell homogenates.
`Cc1ccn2cnc(C(=O)N3CCc4c(nn(C)c4-c4cc(F)c(F)c(F)c4)[C@@H]3C)c2c1` [Example 419, [(7S)-2,7-Dimethyl-3-(3,4,5-trifluorophenyl)-5,7-dihydro-4H-pyrazolo[3,4-c]pyridin-6-yl]-(7-methylimidazo[1,5-a]pyridin-1-yl)methanone]: the pIC50 was 6.72.

For the molecule `C[C@H]1c2nn(C)c(-c3cc(F)c(F)c(F)c3)c2CCN1C(=O)c1cc2[nH]ccc2cc1F` [Example 353, [(7S)-2,7-Dimethyl-3-(3,4,5-trifluorophenyl)-5,7-dihydro-4H-pyrazolo[3,4-c]pyridin-6-yl]-(5-fluoro-1H-indol-6-yl)methanone], the negative-log IC50 (pIC50) was 7.31.

`C[C@H]1c2nn(C)c(-c3cc(F)c(F)c(F)c3)c2CCN1C(=O)c1ccnc2[nH]ncc12` [Example 422, [(7S)-2,7-Dimethyl-3-(3,4,5-trifluorophenyl)-5,7-dihydro-4H-pyrazolo[3,4-c]pyridin-6-yl]-(1H-pyrazolo[3,4-b]pyridin-4-yl)methanone] had a negative-log IC50 (pIC50) of 7.34.

For `C[C@H]1c2nn(C)c(-c3cc(F)c(F)c(F)c3)c2CCN1C(=O)c1cc2ccccc2nn1` [Example 478, Cinnolin-3-yl-[(7S)-2,7-dimethyl-3-(3,4,5-trifluorophenyl)-5,7-dihydro-4H-pyrazolo[3,4-c]pyridin-6-yl]methanone], the pIC50 is 6.95.

Turning to `Cc1nn(C)c2nccc(C(=O)N3CCc4c(nn(C)c4-c4cc(F)c(F)c(F)c4)[C@@H]3C)c12` [Example 425, (1,3-Dimethylpyrazolo[3,4-b]pyridin-4-yl)-[(7S)-2,7-dimethyl-3-(3,4,5-trifluorophenyl)-5,7-dihydro-4H-pyrazolo[3,4-c]pyridin-6-yl]methanone], the negative logarithm of the IC50 (pIC50) was 7.17. The same measure, in the same setting: to `COc1cccc(-c2c3c(nn2C)[C@H](C)N(C(=O)c2ccc4ncccc4c2)CC3)c1` [Example 495, [(7S)-3-(3-Methoxyphenyl)-2,7-dimethyl-5,7-dihydro-4H-pyrazolo[3,4-c]pyridin-6-yl]-(6-quinolyl)methanone] belongs 7.33; to `C[C@H]1c2nn(C)c(-c3cccc(OC(F)F)c3)c2CCN1C(=O)c1ccc2ncccc2c1` [Example 499, [(7S)-3-[3-(Difluoromethoxy)phenyl]-2,7-dimethyl-5,7-dihydro-4H-pyrazolo[3,4-c]pyridin-6-yl]-(6-quinolyl)methanone], 7.35. On the same count and under the same terms, to `C[C@H]1c2nn(C)c(-c3cc(F)c(F)c(F)c3)c2CCN1C(=O)c1ccn2ccncc12` [Example 416, [(7S)-2,7-Dimethyl-3-(3,4,5-trifluorophenyl)-5,7-dihydro-4H-pyrazolo[3,4-c]pyridin-6-yl]-pyrrolo[1,2-a]pyrazin-8-yl-methanone] belongs 8.14; to `COc1nccc(C(=O)N2CCc3c(nn(C)c3-c3cc(F)cc(C(F)F)c3)[C@@H]2C)c1C` [Example 609, [(7S)-3-[3-(Difluoromethyl)-5-fluoro-phenyl]-2,7-dimethyl-5,7-dihydro-4H-pyrazolo[3,4-c]pyridin-6-yl]-(2-methoxy-3-methyl-4-pyridyl)methanone], 7.64. Still for that read-out and setting: the value for `C[C@H]1c2nn(C)c(-c3cc(F)c(F)c(F)c3)c2CCN1C(=O)c1ccc2c(n1)COCC2` [Example 566, 6,8-Dihydro-5H-pyrano[3,4-b]pyridin-2-yl-[(7S)-2,7-dimethyl-3-(3,4,5-trifluorophenyl)-5,7-dihydro-4H-pyrazolo[3,4-c]pyridin-6-yl]methanone] was 6.27.

The experiment is the same for the next values; noted with them: 300 nM [Glycerol-1,3-3H]-oleyl glycerol, one hour incubation.
`CCc1nc(C(=O)N2CCc3c(nn(C)c3-c3cc(F)cc(F)c3)[C@@H]2C)nn1-c1ccccc1` [Example 149, (S)-(3-(3,5-Difluorophenyl)-2,7-dimethyl-2,4,5,7-tetrahydro-6H-pyrazolo[3,4-c]pyridin-6-yl)(5-ethyl-1-phenyl-1H-1,2,4-triazol-3-yl)methanone] gave a negative-log IC50 (pIC50) of 7.92. For `Cc1c(F)cc(-c2c3c(nn2C)[C@H](C)N(C(=O)c2ccc4nccnc4c2)CC3)cc1F` [Example 190, (S)-(3-(3,5-Difluoro-4-methylphenyl)-2,7-dimethyl-2,4,5,7-tetrahydro-6H-pyrazolo[3,4-c]pyridin-6-yl)(quinoxalin-6-yl)methanone], the pIC50 was 6.88. For `Cn1nc2c(c1-c1ccccc1)CCN(C(=O)c1cnc3ccccc3c1)C2` [Example 95, (2-Methyl-3-phenyl-2,4,5,7-tetrahydro-6H-pyrazolo[3,4-c]pyridin-6-yl)(quinolin-3-yl)methanone], the pIC50 is 6.01. Same read-out and setting: to `Cc1c(C(=O)N2CCc3c(nn(C)c3-c3ccccc3)C2)cccc1N1CCOCC1` [Example 19, (2-Methyl-3-morpholinophenyl)(2-methyl-3-phenyl-2,4,5,7-tetrahydro-6H-pyrazolo[3,4-c]pyridin-6-yl)methanone] belongs 5.32; to `C[C@H]1c2nn(C)c(-c3cc(F)c(F)c(F)c3)c2CCN1C(=O)c1nccc2ccccc12` [Example 237, (S)-(2,7-Dimethyl-3-(3,4,5-trifluorophenyl)-2,4,5,7-tetrahydro-6H-pyrazolo[3,4-c]pyridin-6-yl)(isoquinolin-1-yl)methanone], 8.72; to `Cn1nc2c(c1-c1ccccc1)CCN(C(=O)c1ncn(-c3ccccc3)n1)C2` [Example 23, (2-Methyl-3-phenyl-2,4,5,7-tetrahydro-6H-pyrazolo[3,4-c]pyridin-6-yl)(1-phenyl-1H-1,2,4-triazol-3-yl)methanone], 6.07.

`Cn1nc2c(c1-c1ccccc1)CCN(C(=O)c1cccc3c1NC(=O)CO3)C2` [Example 26, 5-(2-Methyl-3-phenyl-4,5,6,7-tetrahydro-2H-pyrazolo[3,4-c]pyridine-6-carbonyl)-2H-benzo[b][1,4]oxazin-3(4H)-one] had a negative logarithm of the IC50 (pIC50) of 5.61.

With `C[C@H]1c2nn(C)c(-c3cc(F)cc(F)c3)c2CCN1C(=O)c1ccc2ncccc2n1` [Example 170], the negative logarithm of the IC50 (pIC50) is 7.63. `COc1nccc(C(=O)N2CCc3c(nn(C)c3-c3cc(F)c(F)c(F)c3)[C@@H]2C)c1C` [Example 314, [(7S)-2,7-Dimethyl-3-(3,4,5-trifluorophenyl)-5,7-dihydro-4H-pyrazolo[3,4-c]pyridin-6-yl]-(2-methoxy-3-methyl-4-pyridyl)methanone]: the negative logarithm of the IC50 (pIC50) is 7.69. Take `C[C@H]1c2nn(C)c(-c3cc(F)c(F)c(F)c3)c2CCN1C(=O)c1ccc(-c2ccn[nH]2)cc1` [Example 269, [(7S)-2,7-Dimethyl-3-(3,4,5-trifluorophenyl)-5,7-dihydro-4H-pyrazolo[3,4-c]pyridin-6-yl]-[4-(1H-pyrazol-5-yl)phenyl]methanone]: the negative logarithm of the IC50 (pIC50) was 8.05. The same measure, in the same setting: to `C[C@H]1c2nn(C)c(-c3cc(F)c(F)c(F)c3)c2CCN1C(=O)c1cc(-n2nccn2)ccc1F` [Example 285, [(7S)-2,7-Dimethyl-3-(3,4,5-trifluorophenyl)-5,7-dihydro-4H-pyrazolo[3,4-c]pyridin-6-yl]-[2-fluoro-5-(triazol-2-yl)phenyl]methanone] belongs 7.73; to `Cn1nc2c(c1-c1ccccc1)CCN(C(=O)c1cnn(C)c1C1CC1)C2` [Example 22, (5-Cyclopropyl-1-methyl-1H-pyrazol-4-yl)(2-methyl-3-phenyl-2,4,5,7-tetrahydro-6H-pyrazolo[3,4-c]pyridin-6-yl)methanone], 6.17. Still for that read-out and setting: the value for `C[C@H]1c2nn(C)c(-c3cccc(Cl)c3)c2CCN1C(=O)c1ccc2nccnc2c1` (single isomer, unassigned) [Example 134] was 8.37. Same read-out and setting: the value for `Cn1nc2c(c1-c1ccccc1)CCN(C(=O)c1ccc3c(c1)OCO3)C2` [Example 29, Benzo[d][1,3]dioxol-5-yl(2-methyl-3-phenyl-2,4,5,7-tetrahydro-6H-pyrazolo[3,4-c]pyridin-6-yl)methanone] was 5.71; that for `Cn1nc2c(c1-c1ccccc1)CCN(C(=O)c1csc3ccccc13)C2` [Example 40, Benzo[b]thiophen-3-yl(2-methyl-3-phenyl-2,4,5,7-tetrahydro-6H-pyrazolo[3,4-c]pyridin-6-yl)methanone] was 6.85; that for `Cn1nc2c(c1-c1ccccc1)CCN(C(=O)c1ccc3cn[nH]c3c1)C2` [Example 68, (1H-Indazol-6-yl)(2-methyl-3-phenyl-2,4,5,7-tetrahydro-6H-pyrazolo[3,4-c]pyridin-6-yl)methanone] was 5.66. Turning to `Cn1nc2c(c1-c1ccccc1)CCN(C(=O)c1ncn3ccccc13)C2` [Example 76, Imidazo[1,5-a]pyridin-1-yl(2-methyl-3-phenyl-2,4,5,7-tetrahydro-6H-pyrazolo[3,4-c]pyridin-6-yl)methanone], the pIC50 was 5.21. Same read-out and setting: to `CC1c2nn(C)c(-c3cc(F)cc(F)c3)c2CCN1C(=O)c1ccc2nccc(Br)c2c1` (stereo not drawn) [Example 162, (4-Bromoquinolin-6-yl)(3-(3,5-difluorophenyl)-2,7-dimethyl-2,4,5,7-tetrahydro-6H-pyrazolo[3,4-c]pyridin-6-yl)methanone] belongs 7.95; to `Cn1nc2c(c1-c1ccccc1)CCN(C(=O)c1ccc3scnc3c1)C2` [Example 60, Benzo[d]thiazol-5-yl(2-methyl-3-phenyl-2,4,5,7-tetrahydro-6H-pyrazolo[3,4-c]pyridin-6-yl)methanone], 6.26. On the same count and under the same terms, to `C[C@H]1c2nn(C)c(-c3cc(F)c(F)c(F)c3)c2CCN1C(=O)c1cc2cccnc2n1C` [Example 222, (S)-(2,7-Dimethyl-3-(3,4,5-trifluorophenyl)-2,4,5,7-tetrahydro-6H-pyrazolo[3,4-c]pyridin-6-yl)(1-methyl-1H-pyrrolo[2,3-b]pyridin-2-yl)methanone] belongs 7.19.
